According to patent US8951760B2, “Method for producing an L-amino acid” (priority 2010, dated 2015):

Tested on: L-lysine-producing bacterium, WC196 LC/pCABD2 strain
Assay: L-lysine production culture in small fermentation tank with addition of thiourea or urea to the medium
Assay type: cell-based, Escherichia coli
Protocol: The glycerol stock of the L-lysine-producing bacterium, WC196 LC/pCABD2 strain, was inoculated in an amount of one loop to the LB agar medium (1% of tryptone, 0.5% of yeast extract, 0.5% of sodium chloride, 1.5% of agarose) containing 20 mg/L of streptomycin, and cultured at 37° C. for 24 hours as static culture.
The cells grown in the aforementioned preculture were scraped off from the medium, suspended in a 0.85% NaCl aqueous solution, and inoculated into 300 mL of MS glucose liquid fermentation medium or MS fatty acid liquid fermentation medium having the following compositions and contained in a small fermentation tank having a total volume of 1 L at a turbidity of 0.04 measured at a wavelength of 600 nm to start the culture. With the MS glucose liquid fermentation medium, the culture was performed at a culture temperature of 37° C. and a stirring rate of 300 rpm for 16 hours with the addition of 20 mg/L of streptomycin and aeration of compressed air sterilized with a sterilization filter at 1 vvm. Furthermore, pH was maintained at 6.7 with ammonia gas. With the MS fatty acid liquid fermentation medium, the culture was performed at a culture temperature of 37° C. and a stirring rate of 700 rpm for 42 hours with addition of 20 mg/L of streptomycin and aeration of compressed air sterilized with a sterilization filter at 1 vvm. Furthermore, pH was maintained at 6.7 with ammonia gas.
The culture was performed with adding 1 mM or 5 mM thiourea as an antioxidant at the time of the start of the culture. As controls, the culture was performed under a condition in which thiourea was not added (referred to as a thiourea-free condition), and a condition in which urea was added at the same concentrations as thiourea (referred to as a urea addition condition).
During the culture, an appropriate volume of each liquid medium was sampled, and the amount of L-lysine in the culture supernatant was measured with a Biotech Analyzer AS310 (Sakura SI). Complete consumption of the oleate added to the medium was confirmed by using a gas chromatograph GC-2014 (Shimadzu). Complete consumption of the glucose added to the medium was separately confirmed by using a Biotech Analyzer AS310. Furthermore, a Tween 80 solution was added at a final concentration of 1.0% (v/v) immediately after the end of the culture, the resultant was appropriately diluted, and turbidity was measured at a wavelength of 600 nm to measure cell amount at the time of the end of the culture.

[1] = carbon source fatty acid (sodium oleate), additive 1 mM
[2] = carbon source fatty acid (sodium oleate), additive 5 mM
[3] = carbon source glucose, additive 1 mM
[4] = carbon source glucose, additive 5 mM

| SMILES | Culture time required for consumption of carbon source [1] [h] | L-Lysine accumulation at the end of culture [1] [g/L] | OD600 at the end of culture [1] | Culture time required for consumption of carbon source [2] [h] | L-Lysine accumulation at the end of culture [2] [g/L] | OD600 at the end of culture [2] | Culture time required for consumption of carbon source [3] [h] | L-Lysine accumulation at the end of culture [3] [g/L] | OD600 at the end of culture [3] | Culture time required for consumption of carbon source [4] [h] | L-Lysine accumulation at the end of culture [4] [g/L] | OD600 at the end of culture [4] |
| --- | --- | --- | --- | --- | --- | --- | --- | --- | --- | --- | --- | --- |
| NC(N)=S [Thiourea, thiourea] | 33.0 | 5.2 | 7.3 | 33.0 | 5.2 | 7.5 | 16.0 | 4.7 | 5.3 | 16.0 | 4.7 | 5.2 |
| NC(N)=O [Urea, urea] | 41.5 | 4.8 | 6.8 | 41.5 | 4.8 | 6.9 | 16.0 | 4.6 | 5.2 | 16.0 | 4.6 | 5.2 |
